Results taken from patent US8101576B2, “Compounds and their effects on feeding behaviour” (priority 2006, dated 2012).
Square brackets hold non-standard residues; d marks the D form. Ends that are not written are not given here. * marks the point of attachment. Arachidoyl = CCCCCCCCCCCCCCCCCCCC(=O)*; Palmitoyl = CCCCCCCCCCCCCCCC(=O)*; Myristoyl = CCCCCCCCCCCCCC(=O)*

Assays:
[1] = Inhibition of food intake, intraperitoneal injection to fasted mice; assay type: in vivo, C57BL/6 mice
Protocol: (§1) Animals: All animal procedures were approved by the British Home Office Animals (Scientific Procedures) Act 1986 (Project License number 70/5516).
(§2) Study protocol: C57BL/6 mice (20-35 g) were injected with the peptide under investigation following a 20-hour fast. Wistar rats were injected following a 24-hour fast. […] A pre-weighed quantity of chow was presented immediately after injection.

[2] = Inhibition of food intake, subcutaneous injection to fasted rats; assay type: in vivo, Wistar rats; conditions: for Mean cumulative food intake in comparison to saline control / food intake in comparison to control group treated with native oxyntomodulin: over 24 hours
Protocol: as §1, §2

Substance: D-His Ala Gln Gly Thr Phe Thr Ser Asp Tyr Ser Lys Tyr Leu Glu Gln Glu Ile Val Lys Tyr Phe Leu Gln Trp Leu Lys Asn Ala Gly Pro Ser Lys Asn Asn Ile Ala ([dH]AQGTFTSDYSKYLEQEIVKYFLQWLKNAGPSKNNIA) [PEPTIDE NO: 136]
- Mean cumulative food intake in comparison to saline control ([1]; 5 nmoles/kg, over 24 hours): potent and long acting suppression of food intake
- food intake in comparison to control group treated with native oxyntomodulin ([1]; 5 nmoles/kg, over 24 hours): lower than in the control group treated with native oxyntomodulin

Substance: D-His Ala Gln Gly Thr Phe Thr Ser Asp Tyr Ser Lys Tyr Leu glu Glu Glu Leu Val Lys Tyr Phe Ile Gln Trp Leu Met Asn Thr Lys Arg Asn Lys Asn Asn Ile Ala ([dH]AQGTFTSDYSKYLEEELVKYFIQWLMNTKRNKNNIA; not fully specified (residue 15)) [PEPTIDE NO: 108]
- Mean cumulative food intake in comparison to saline control ([1]; 100 nmoles/kg, over 24 hours): potent and long acting suppression of food intake
- food intake in comparison to control group treated with native oxyntomodulin ([1]; 100 nmoles/kg, over 24 hours): lower than in the control group treated with native oxyntomodulin

Substance: D-His Ser Gln Gly Thr Phe Thr Ser Asp Tyr Ser Lys Tyr Leu Asp Ser Arg Arg Ala Gln Asp Phe Val Gln Trp Leu Lys Asn Ala Gly Pro Ser Lys Asn Asn Ile Ala ([dH]SQGTFTSDYSKYLDSRRAQDFVQWLKNAGPSKNNIA) [PEPTIDE NO: 195]
- Mean cumulative food intake in comparison to saline control ([1]; 800 nmoles/kg, over 24 hours): potent and long acting suppression of food intake
- food intake in comparison to control group treated with native oxyntomodulin ([1]; 800 nmoles/kg, over 24 hours): lower than in the control group treated with native oxyntomodulin

Substance: D-His Ser Gln Gly Thr Phe Thr Ser Asp Tyr Ser Lys Tyr Leu Glu Gln Glu Ile Val Lys Tyr Phe Ile Gln Trp Leu Lys Asn Ala Gly Pro Ser Lys Asn Asn Ile Ala ([dH]SQGTFTSDYSKYLEQEIVKYFIQWLKNAGPSKNNIA) [PEPTIDE NO: 94]
- Mean cumulative food intake in comparison to saline control ([2]; 5 nmoles/kg): potent and long acting suppression of food intake
- food intake in comparison to control group treated with native oxyntomodulin ([2]; 5 nmoles/kg): lower than in the control group treated with native oxyntomodulin

Substance: D-His Ser Gln Gly Thr Phe Thr Ser Asp Tyr Ser Lys Tyr Leu Glu Gln Glu Leu Val Lys Tyr Phe Ile Gln Trp Leu Lys Asn Ala Gly Pro Ser Lys Asn Asn Ile Ala ([dH]SQGTFTSDYSKYLEQELVKYFIQWLKNAGPSKNNIA) [PEPTIDE NO: 82]
- Mean cumulative food intake in comparison to saline control ([2]; 10 nmoles/kg): potent and long acting suppression of food intake
- food intake in comparison to control group treated with native oxyntomodulin ([2]; 10 nmoles/kg): lower than in the control group treated with native oxyntomodulin

Substance: D-His Ser Gln Gly Thr Phe Thr Ser Asp Tyr Ser Lys Tyr Leu Glu Glu Glu Leu Val Lys Tyr Phe Ile Gln Trp Leu Lys Asn Ala Gly Pro Ser Lys Asn Asn Ile Ala ([dH]SQGTFTSDYSKYLEEELVKYFIQWLKNAGPSKNNIA) [PEPTIDE NO: 58]
- Mean cumulative food intake in comparison to saline control ([2]; 10 nmoles/kg): potent and long acting suppression of food intake
- food intake in comparison to control group treated with native oxyntomodulin ([2]; 10 nmoles/kg): lower than in the control group treated with native oxyntomodulin

Substance: D-His Ser Gln Gly Thr Phe Thr Ser Asp Tyr Ser Lys Tyr Leu Glu Glu Glu Leu Val Lys Tyr Phe Ile Gln Trp Leu Met Asn Thr Lys Arg Asn Lys Asn Asn Ile Ala ([dH]SQGTFTSDYSKYLEEELVKYFIQWLMNTKRNKNNIA) [PEPTIDE NO: 60]
- Mean cumulative food intake in comparison to saline control ([2]; 100 nmoles/kg): potent and long acting suppression of food intake
- food intake in comparison to control group treated with native oxyntomodulin ([2]; 100 nmoles/kg): lower than in the control group treated with native oxyntomodulin

Substance: D-His Ser Gln Gly Thr Phe Thr Ser Asp Tyr Ser Lys Tyr Leu Glu Glu Glu Leu Val Lys Tyr Phe Leu Gln Trp Leu Lys Asn Ala Gly Pro Ser Lys Asn Asn Ile Ala ([dH]SQGTFTSDYSKYLEEELVKYFLQWLKNAGPSKNNIA) [PEPTIDE NO: 52]
- Mean cumulative food intake in comparison to saline control ([2]; 10 nmoles/kg): potent and long acting suppression of food intake
- food intake in comparison to control group treated with native oxyntomodulin ([2]; 10 nmoles/kg): lower than in the control group treated with native oxyntomodulin

Substance: D-His Ser Gln Gly Thr Phe Thr Ser Asp Tyr Ser Lys Tyr Leu Glu Glu Glu Leu Val Lys Tyr Phe Leu Gln Trp Leu Lys Asn Ala Gly Pro Ser Lys Asn Asn Ile Ala Glu Ala Lys ([dH]SQGTFTSDYSKYLEEELVKYFLQWLKNAGPSKNNIAEAK) [PEPTIDE NO: 210]
- Mean cumulative food intake in comparison to saline control ([1]; 20 nmoles/kg, over 48 hours): potent and long acting suppression of food intake
- food intake in comparison to control group treated with native oxyntomodulin ([1]; 20 nmoles/kg, over 48 hours): lower than in the control group treated with native oxyntomodulin

Substance: D-His Ser Gln Gly Thr Phe Thr Ser Asp Tyr Ser Lys Tyr Leu Glu Glu Glu Leu Val Lys Tyr Phe Leu Gln Trp Leu Lys Asn Ala Gly Pro Ser Lys Asn Asn Ile Ala Glu Ala Lys-arachidoyl ([dH]SQGTFTSDYSKYLEEELVKYFLQWLKNAGPSKNNIAEAK(Arachidoyl)) [PEPTIDE NO: 214]
- Mean cumulative food intake in comparison to saline control ([1]; 400 nmoles/kg, over 48 hours): potent and long acting suppression of food intake
- food intake in comparison to control group treated with native oxyntomodulin ([1]; 400 nmoles/kg, over 48 hours): lower than in the control group treated with native oxyntomodulin

Substance: D-His Ser Gln Gly Thr Phe Thr Ser Asp Tyr Ser Lys Tyr Leu Glu Glu Glu Leu Val Lys Tyr Phe Leu Gln Trp Leu Lys Asn Ala Gly Pro Ser Lys Asn Asn Ile Ala Glu Ala Lys-myristoyl ([dH]SQGTFTSDYSKYLEEELVKYFLQWLKNAGPSKNNIAEAK(Myristoyl)) [PEPTIDE NO: 211]
- Mean cumulative food intake in comparison to saline control ([1]; 200 nmoles/kg, over 48 hours): potent and long acting suppression of food intake
- food intake in comparison to control group treated with native oxyntomodulin ([1]; 200 nmoles/kg, over 48 hours): lower than in the control group treated with native oxyntomodulin

Substance: D-His Ser Gln Gly Thr Phe Thr Ser Asp Tyr Ser Lys Tyr Leu Glu Glu Glu Leu Val Lys Tyr Phe Leu Gln Trp Leu Lys Asn Ala Gly Pro Ser Lys Asn Asn Ile Ala Glu Ala Lys-palmitoyl ([dH]SQGTFTSDYSKYLEEELVKYFLQWLKNAGPSKNNIAEAK(Palmitoyl)) [PEPTIDE NO: 213]
- Mean cumulative food intake in comparison to saline control ([1]; 400 nmoles/kg, over 48 hours): potent and long acting suppression of food intake
- food intake in comparison to control group treated with native oxyntomodulin ([1]; 400 nmoles/kg, over 48 hours): lower than in the control group treated with native oxyntomodulin

Substance: HSQGTFTSDYSKYLEEELVKYFLQWLKNAGPSKNNIA [PEPTIDE NO: 4]
- Mean cumulative food intake in comparison to saline control ([1]; 5 nmoles/kg, over 24 hours): potent and long acting suppression of food intake
- food intake in comparison to control group treated with native oxyntomodulin ([1]; 5 nmoles/kg, over 24 hours): lower than in the control group treated with native oxyntomodulin

Substance: His Ser Gln Gly Thr Phe Thr Ser Asp Tyr Ser Lys Tyr Leu Glu Glu Glu Ile Val Lys Tyr Phe ILe Gln Trp Leu Lys Asn Ala Gly Pro Ser Lys Asn Asn Ile Ala (HSQGTFTSDYSKYLEEEIVKYFIQWLKNAGPSKNNIA) [PEPTIDE NO: 22]
- Mean cumulative food intake in comparison to saline control ([2]; 3 nmoles/kg): potent and long acting suppression of food intake
- food intake in comparison to control group treated with native oxyntomodulin ([2]; 3 nmoles/kg): lower than in the control group treated with native oxyntomodulin

Substance: PEPTIDE NO: 216: analogue of oxyntomodulin with Asn34 replaced by Asp34; sequence shown only in FIG. 1 (HSQGTFTSDYSKYLEEELVKYFLEWLKNAGPSKDNIA)
- food intake suppression continues for ([2]; 10 nmoles/kg, 24 hours observed): ≥ 24 h
- Mean cumulative food intake in comparison to saline control ([2]; 10 nmoles/kg): potent and long acting suppression of food intake
- food intake in comparison to control group treated with native oxyntomodulin ([2]; 10 nmoles/kg): lower than in the control group treated with native oxyntomodulin

Substance: [dH]ADGWFWSDYSKYLDSRRAQDFVQWLKNAGPSKNNIA [PEPTIDE NO: 199]
- Mean cumulative food intake in comparison to saline control ([2]; 500 nmoles/kg): potent and long acting suppression of food intake
- food intake in comparison to control group treated with native oxyntomodulin ([2]; 500 nmoles/kg): lower than in the control group treated with native oxyntomodulin
